Results published in US9376376B2, “Substitute diphenylamine compounds use thereof as antitumor agents” (SINOCHEM CORPORATION, priority 2012, dated 2016).

Legend:
[1] = tested on: leukemia HL-60 cells; experiment: In vitro cell inhibition assay (MTT method), HL-60; format: cell-based, human; details: 48 h
Protocol: (§1) The human cancer cell lines used for this assay were lung cancer A549 and leukemia HL-60.
(§2) The A549 or HL-60 cells were picked up from cell incubator, after washed for twice using PBS, cells were digested by 0.25% trypsin, and then add medium to terminate the digestion. After cells were collected using centrifuge and re-suspended, count cells under inverted microscope and add medium to make a density was 5×10^4 cells/mL. After 100 μL aliquots were added to each well of 96-well microtiter plates, cells were cultured in 5% incubator for overnight at 37° C., then the different concentration compounds were added to each well. After incubation for 48 h, MTT solution was added to each well and plates were then incubated for 4 h. The MTT tetrazolium was reduced to formazan by living cells. Then the formazan crystals were dissolved though adding DMSO to each well. The absorbance was read at 570 nm with a microplate reader.

[2] = tested on: lung cancer A549 cell; experiment: In vitro cell inhibition assay (MTT method), A549; format: cell-based, human; details: 48 h incubation
Protocol: as §1, §2

| Structure (SMILES) | Proliferation inhibitory effect of the compounds on HL-60 cells (% of Control) ([1]; concentration 0.01 μM) | Proliferation inhibitory effect of the compounds on HL-60 cells (% of Control) ([1]; concentration 0.1 μM) | Proliferation inhibitory effect of the compounds on HL-60 cells (% of Control) ([1]; concentration 1 μM) | Proliferation inhibitory effect of the compounds on HL-60 cells (% of Control) ([1]; concentration 10 μM) | Proliferation inhibitory effect of the compounds on HL-60 cells (% of Control) ([1]; concentration 100 μM) | Proliferation inhibitory effect of the compounds on A549 cell (% of Control) ([2]; 0.01 μM) | Proliferation inhibitory effect of the compounds on A549 cell (% of Control) ([2]; 0.1 μM) | Proliferation inhibitory effect of the compounds on A549 cell (% of Control) ([2]; 1 μM) | Proliferation inhibitory effect of the compounds on A549 cell (% of Control) ([2]; 10 μM) | Proliferation inhibitory effect of the compounds on A549 cell (% of Control) ([2]; 100 μM) |
| --- | --- | --- | --- | --- | --- | --- | --- | --- | --- | --- |
| Cc1cc([N+](=O)[O-])cc([N+](=O)[O-])c1Nc1c(Cl)cc(Cl)cc1C#N [Compound 30-120] | 23.6 % of Control | 39.2 % of Control | 70.6 % of Control | 95.9 % of Control | 95.7 % of Control | −1.5 % of Control | −0.9 % of Control | −0.7 % of Control | 84.0 % of Control | 92.0 % of Control |
| N#Cc1c(Cl)c(Cl)c(Nc2c(Cl)cccc2Cl)c(C#N)c1Cl [Compound 6-41] | 6.5 % of Control | 3.9 % of Control | 7.8 % of Control | 86.5 % of Control | 87.9 % of Control | 3.8 % of Control | 0.7 % of Control | 13.1 % of Control | 84.0 % of Control | 92.0 % of Control |
| N#Cc1cc(Cl)c(Nc2c(Cl)c(Cl)c(C#N)c(Cl)c2C#N)c(Cl)c1 [Compound 6-98] | −2.5 % of Control | 10.1 % of Control | 30.0 % of Control | 91.7 % of Control | 95.1 % of Control | −2.5 % of Control | −0.7 % of Control | 11.7 % of Control | 90.1 % of Control | 93.2 % of Control |
| Cc1cc([N+](=O)[O-])cc([N+](=O)[O-])c1Nc1c(Cl)cc(C#N)cc1Cl [Compound 30-104] | 21.8 % of Control | 31.6 % of Control | 65.3 % of Control | 88.0 % of Control | 93.3 % of Control | 2.4 % of Control | 1.1 % of Control | −0.1 % of Control | 78.4 % of Control | 91.8 % of Control |
| Cc1c(Cl)c([N+](=O)[O-])cc([N+](=O)[O-])c1Nc1c(F)cc(Cl)cc1F [Compound 22-93] | −3.6 % of Control | −7.1 % of Control | 6.8 % of Control | 70.4 % of Control | 95.4 % of Control | −2.2 % of Control | −1.8 % of Control | −0.2 % of Control | 73.7 % of Control | 91.4 % of Control |
| N#Cc1c(Cl)c(Cl)c(Nc2ccccc2)c(C#N)c1Cl [Compound 6-1] | 11.5 % of Control | 10.4 % of Control | 18.8 % of Control | 63.9 % of Control | 61.9 % of Control | 13.1 % of Control | 12.1 % of Control | 16.9 % of Control | 20.4 % of Control | 19.8 % of Control |
| N#Cc1c(Cl)c(Cl)c(Nc2c(Cl)cc([N+](=O)[O-])cc2Cl)c(C#N)c1Cl [Compound 6-99] | 8.6 % of Control | 34.2 % of Control | 60.2 % of Control | 56.5 % of Control | 54.8 % of Control | 0 % of Control | 0 % of Control | 55.0 % of Control | 83.6 % of Control | 86.3 % of Control |
| Cc1c(Cl)c([N+](=O)[O-])cc([N+](=O)[O-])c1Nc1c(Cl)cc(Cl)cc1C#N [Compound 22-120] | 9.6 % of Control | 20.5 % of Control | 19.7 % of Control | 63.1 % of Control | 61.0 % of Control | 0.8 % of Control | 0 % of Control | 9.8 % of Control | 86.8 % of Control | 92.1 % of Control |
| Cc1c(Cl)c([N+](=O)[O-])cc([N+](=O)[O-])c1Nc1c(F)cccc1F [Compound 22-33] | −4.9 % of Control | −1.8 % of Control | 54.3 % of Control | 66.2 % of Control | 81.2 % of Control | −1.6 % of Control | −1.1 % of Control | 61.3 % of Control | 78.7 % of Control | 90.3 % of Control |
| N#Cc1c(Cl)c(Cl)c(Nc2ccc(Cl)cc2Cl)c(C#N)c1Cl [Compound 6-39] | 11.9 % of Control | 14.7 % of Control | 31.0 % of Control | 78.5 % of Control | 80.8 % of Control | 18.3 % of Control | 18.8 % of Control | 19.6 % of Control | 24.9 % of Control | 92.6 % of Control |
| N#Cc1c(Cl)c(Cl)c(Nc2c(Br)cc([N+](=O)[O-])cc2Br)c(C#N)c1Cl [Compound 6-114] | −0.4 % of Control | 10.0 % of Control | 20.7 % of Control | 87.5 % of Control | 93.2 % of Control | 10.1 % of Control | 2.8 % of Control | 11.5 % of Control | 82.1 % of Control | 94.9 % of Control |
